# Columns and labels:
# [1] = system: MCF7; assay: Cytotoxicity against human MCF7 cells at 10 uM assessed as cell growth relative to control; assay type: functional; settings: read-out: Activity
# [2] = system: HCT-116; assay: Cytotoxicity against human HCT116 cells at 10 uM assessed as cell growth relative to control; assay type: functional; settings: read-out: Activity
# [3] = system: SK-MEL-2; assay: Cytotoxicity against human SK-MEL-2 cells at 10 uM assessed as cell growth relative to control; assay type: functional; settings: read-out: Activity
# [4] = system: DU-145; assay: Cytotoxicity against human DU145 cells at 10 uM assessed as cell growth relative to control; assay type: functional; settings: read-out: Activity
# [5] = system: SNB-75; assay: Cytotoxicity against human SNB75 cells at 10 uM assessed as cell growth relative to control; assay type: functional; settings: read-out: Activity
# [6] = system: SF-268; assay: Cytotoxicity against human SF268 cells at 10 uM assessed as cell growth relative to control; assay type: functional; settings: read-out: Activity
# [7] = system: UO-31; assay: Cytotoxicity against human UO31 cells at 10 uM assessed as cell growth relative to control; assay type: functional; settings: read-out: Activity
# [8] = system: OVCAR-3; assay: Cytotoxicity against human OVCAR-3 cells at 10 uM assessed as cell growth relative to control; assay type: functional; settings: read-out: Activity
# [9] = system: CAKI-1; assay: Cytotoxicity against human Caki1 cells at 10 uM assessed as cell growth relative to control; assay type: functional; settings: read-out: Activity
# [10] = system: SNB-19; assay: Cytotoxicity against human SNB19 cells at 10 uM assessed as cell growth relative to control; assay type: functional; settings: read-out: Activity
# [11] = target: Dual specificity mitogen-activated protein kinase kinase; MEK1/2 (Homo sapiens) (UniProt P36507+Q02750); settings: HEK293, at 10 µM
# Sequence of Dual specificity mitogen-activated protein kinase kinase; MEK1/2 (Homo sapiens) (P36507 whole entry, looked up): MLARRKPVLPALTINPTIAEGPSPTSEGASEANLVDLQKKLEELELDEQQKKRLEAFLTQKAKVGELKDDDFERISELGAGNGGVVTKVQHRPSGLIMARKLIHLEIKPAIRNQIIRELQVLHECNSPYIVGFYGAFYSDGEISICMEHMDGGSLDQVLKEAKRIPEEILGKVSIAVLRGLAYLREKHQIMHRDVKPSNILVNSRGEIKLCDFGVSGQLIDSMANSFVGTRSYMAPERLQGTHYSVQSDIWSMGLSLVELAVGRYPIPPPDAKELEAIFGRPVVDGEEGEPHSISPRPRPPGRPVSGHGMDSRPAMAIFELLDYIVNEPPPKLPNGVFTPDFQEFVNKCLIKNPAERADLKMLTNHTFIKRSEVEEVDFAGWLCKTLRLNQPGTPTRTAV
# Sequence of Dual specificity mitogen-activated protein kinase kinase; MEK1/2 (Homo sapiens) (Q02750 whole entry, looked up): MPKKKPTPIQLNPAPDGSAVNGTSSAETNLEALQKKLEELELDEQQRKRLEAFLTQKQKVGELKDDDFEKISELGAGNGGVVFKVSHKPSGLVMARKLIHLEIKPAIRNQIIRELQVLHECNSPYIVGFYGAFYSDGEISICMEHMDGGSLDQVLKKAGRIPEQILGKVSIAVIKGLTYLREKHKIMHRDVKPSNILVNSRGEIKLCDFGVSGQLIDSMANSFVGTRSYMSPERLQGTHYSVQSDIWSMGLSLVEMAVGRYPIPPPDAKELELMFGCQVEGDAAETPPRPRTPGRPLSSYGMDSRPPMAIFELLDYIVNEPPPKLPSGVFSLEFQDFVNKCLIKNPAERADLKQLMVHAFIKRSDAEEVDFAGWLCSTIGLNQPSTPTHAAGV
# Description: Inhibition of EGF-induced MEK1/2 activity in HEK293 cells assessed as phosphorylated ERK1/2 level at 10 uM after 1 hr by Western blotting relative to control
# [12] = system: HL-60(TB); assay: Cytotoxicity against human HL-60(TB) cells at 10 uM assessed as cell growth relative to control; assay type: functional; settings: read-out: Activity
# [13] = system: A549; assay: Cytotoxicity against human A549 cells at 10 uM assessed as cell growth relative to control; assay type: functional; settings: read-out: Activity
# [14] = system: K562; assay: Cytotoxicity against human K562 cells at 10 uM assessed as cell growth relative to control; assay type: functional; settings: read-out: Activity
# [15] = system: KM12; assay: Cytotoxicity against human KM12 cells at 10 uM assessed as cell growth relative to control; assay type: functional; settings: read-out: Activity
# [16] = system: UACC-257; assay: Cytotoxicity against human UACC257 cells at 10 uM assessed as cell growth relative to control; assay type: functional; settings: read-out: Activity
# [17] = system: PC-3; assay: Cytotoxicity against human PC3 cells at 10 uM assessed as cell growth relative to control; assay type: functional; settings: read-out: Activity
SMILES,growth at 10 µM [1] [%],growth at 10 µM [2] [%],growth at 10 µM [3] [%],growth at 10 µM [4] [%],growth at 10 µM [5] [%],growth at 10 µM [6] [%],growth at 10 µM [7] [%],growth at 10 µM [8] [%],growth at 10 µM [9] [%],growth at 10 µM [10] [%],inhibition [11] [%],growth at 10 µM [12] [%],growth at 10 µM [13] [%],growth at 10 µM [14] [%],growth at 10 µM [15] [%],growth at 10 µM [16] [%],growth at 10 µM [17] [%]
COc1cc(NCc2ccccc2)c2ncn(C(C)C)c2c1,5.8,103,91.6,136,92.3,125,83.2,104,97.2,90.7,54,50.3,110,64.2,104,106,
COCCCOc1cc(NCc2ccccc2)c2ncn(C(C)C)c2c1,93.2,100,92.7,99.2,92,96.7,79.9,84.9,81.3,90.3,,100,94,90.9,100,101,96.1
